The assay relates to testosterone-enhanced ventral prostate and seminal vesicle weights. As to the kind of experiment: Ventral Prostate and Seminal Vesicle Weight in vivo Assay. Also: key: 'active' if the non weight adjusted prostate weight was ≦40 mg or the % Inhibition prostate weight, body weight adjusted was ≧40% @ 2 mg/day dosage; ID50's, if determined, of ≦15 mg/day also indicated an 'active' compound; listed herein as 'inactive' as they did not meet the specified criteria defined above. Also on record: species or system rat. Conditions: immature castrated male Sprague Dawley rats, once daily for five days, usually orally 40 mg/kg, with testosterone propionate 2 mg/kg s.c. As to the method: Immature (approximately 50 g) castrated male Sprague Dawley rats (Charles River) were treated once daily for five days with test compound (usually given orally at 40 mg/kg in a volume of 0.3 mL, in 30% cyclodextrin or 0.5% methylcellulose vehicle) and with testosterone propionate (given subcutaneously by injection at the nape of the neck at 2 mg/kg, in a volume of 0.1 mL in sesame oil). On the sixth day, the rats were euthanized by asphyxiation in carbon dioxide. Ventral prosatates and seminal vesicles were removed and their wet weights determined.
A test compound was said to be “active” if the non weight adjusted prostate weight was ≦40 mg or the % Inhibition prostate weight, body weight adjusted was ≧40% @ 2 mg/day dosage.

Consider `CCS(=O)(=O)CC(C)(O)c1cc2cc([N+](=O)[O-])c(C(F)(F)F)cc2n1C` (single isomer, unassigned) [Compound 232], for which the “active / inactive: inhibition of testosterone-enhanced prostate weight” value (shortened to “active / inactive: inhibition”) is recorded as “active”. The result for `CCS(=O)(=O)CC(C)(O)c1cc2cc(Cl)c(C(F)(F)F)cc2[nH]1` (racemic) [Compound 404] reads “active”. The result for `CCSCC(C)(O)c1cc2cc([N+](=O)[O-])c(C(F)(F)F)cc2o1` (racemic) [Compound 9] reads “inactive”.

On to `Cc1c(C(C)(C)O)[nH]c2cc(C(F)(F)F)c(C#N)cc12` [Compound 289], for which the “active / inactive: inhibition” value is “active”. The result for `CCSCC(C)(O)c1cc2cc(C#N)c(C)cc2[nH]1` (racemic) [Compound 446] reads “inactive”. The result for `CC[S+]([O-])CC(C)(O)c1[nH]c2cc(C(F)(F)F)c(C#N)cc2c1C` (mixture of isomers) [Compound 319] reads “active”. For the compound `CC(O)(c1[nH]c2cc(C(F)(F)F)c(C#N)cc2c1C#C[Si](C)(C)C)C(F)(F)F` (single isomer, unassigned) [Compound 347], the “active / inactive: inhibition” value was “active”.

In the case of `CC(O)(COc1ccc(C#N)cc1)c1cc2cc(C#N)c(C(F)(F)F)cc2[nH]1` (stereo not shown) [Compound 426, 2-[2-(4-Cyano-phenoxy)-1-hydroxy-1-methyl-ethyl]-6-trifluoromethyl-1H -indole-5-carbonitrile], the “active / inactive: inhibition” value was “inactive”. In the case of `CC(O)(c1[nH]c2cc(C(F)(F)F)c(C#N)cc2c1Cl)C(F)(F)F` (single isomer, unassigned) [Compound 345], the “active / inactive: inhibition” value is given as “active”.

As for `OC1(c2cc3cc(Cl)c(C(F)(F)F)cc3[nH]2)CCSC1` (racemic) [Compound 14], the “active / inactive: inhibition” value is “inactive”. `C#Cc1c(C(C)(O)CSCC)[nH]c2cc(C(F)(F)F)c(C#N)cc12` (racemic) [Compound 326]: the “active / inactive: inhibition” value was “inactive”. The result for `CC(C)(O)c1[nH]c2cc(C(F)(F)F)c([N+](=O)[O-])cc2c1Br` [Compound 277] reads “active”; that for `CCSCC(C)(O)c1[nH]c2cc(C(F)(F)F)c([N+](=O)[O-])cc2c1I` (single isomer, unassigned) [Compound 244], “active”. The result for `CCSCC(C)(O)c1cc2cc(C#N)c(C(F)(F)F)cc2n1CC` (racemic) [Compound 243] reads “active”; that for `CCSCC(C)(O)c1cc2cc(C#N)c(C(F)(F)F)cc2n1COC` (racemic) [Compound 322], “inactive”; that for `CCSCC(C)(O)c1[nH]c2cc(C(F)(F)F)c(C#N)cc2c1CC` (racemic) [Compound 344], “active”. For the compound `CCS(=O)(=O)CC(C)(O)c1cc2cc([N+](=O)[O-])c(C(F)(F)F)cc2n1C` (single isomer, unassigned) [Compound 250], the “active / inactive: inhibition” value is on record as “active”. The result for `CCSCC(C)(O)c1c(C)c2cc(C#N)c(C(F)(F)F)cc2n1C` (single isomer, unassigned) [Compound 318] reads “inactive”. `CC(C)(O)c1cc2cc(Cl)c(Cl)cc2[nH]1` [Compound 405]: the “active / inactive: inhibition” value is “inactive”.

For the compound `CC(C)(O)c1cc2cc(Cl)c(C(F)(F)F)cc2n1S(C)(=O)=O` [Compound 284], the “active / inactive: inhibition” value is “active”. For `CC(C)(O)c1[nH]c2cc(C(F)(F)F)c(C#N)cc2c1Br` [Compound 288], the “active / inactive: inhibition” value is on record as “active”. The result for `CCSCC(C)(O)c1[nH]c2cc(C(F)(F)F)c([N+](=O)[O-])cc2c1I` (single isomer, unassigned) [Compound 241] reads “inactive”; that for `Cc1c(C(C)(C)O)[nH]c2cc(C(F)(F)F)c([N+](=O)[O-])cc12` [Compound 290], “inactive”.

In the case of `CCSCC(C)(O)c1cc2nc(C#N)ccc2[nH]1` (racemic) [Compound 6], the “active / inactive: inhibition” value is “inactive”. With `CC(O)(CS(=O)(=O)c1ccc(F)cc1)c1cc2cc(Cl)c(C(F)(F)F)cc2[nH]1` (stereo not shown) [Compound 85], the “active / inactive: inhibition” value was “inactive”.

On to `CC(C)(O)c1[nH]c2cc(C(F)(F)F)c(C#N)cc2c1Cl` [Compound 287], for which the “active / inactive: inhibition” value was “inactive”. The result for `CC(O)(CSCc1ccccn1)c1cc2cc([N+](=O)[O-])c(C(F)(F)F)cc2[nH]1` (racemic) [Compound 204] reads “inactive”.

Take `CC(C)(O)c1cc2cc([N+](=O)[O-])c(C(F)(F)F)cc2n1S(C)(=O)=O` [Compound 273]: the “active / inactive: inhibition” value was “inactive”.

With `CC(C)(O)c1[nH]c2cc(C(F)(F)F)c(Cl)cc2c1I` [Compound 279], the “active / inactive: inhibition” value is “inactive”. The result for `CC(C)(O)c1[nH]c2cc(C(F)(F)F)c(Cl)cc2c1Cl` [Compound 282] reads “inactive”; that for `CCSCC(C)(O)c1cc2cc(C)c(C(F)(F)F)cc2[nH]1` (racemic) [Compound 414], “inactive”; that for `CCSCC(C)(O)c1[nH]c2cc(C(F)(F)F)c(C#N)cc2c1C#C[Si](C)(C)C` (racemic) [Compound 325], “inactive”. On to `CCSCC(C)(O)c1cc2cc(C#N)c(C(F)(F)F)cc2n1CC#N` (racemic) [Compound 323], for which the “active / inactive: inhibition” value is “inactive”.

Turning to `CC(O)(c1cc2cc(C#N)c(C(F)(F)F)cc2[nH]1)C(F)(F)F` (stereo not shown) [Compound 329, 2-(2,2,2-Trifluoro-1-hydroxy-1-methyl-ethyl)-6-trifluoromethyl-1H-indole-5-carbonitrile], the “active / inactive: inhibition” value was “active”. On to `CC(O)(c1[nH]c2cc(C(F)(F)F)c(C#N)cc2c1I)C(F)(F)F` (racemic) [Compound 330], for which the “active / inactive: inhibition” value is listed as “active”. The result for `CC(C)(O)c1[nH]c2cc(C(F)(F)F)c([N+](=O)[O-])cc2c1C#N` [Compound 291] reads “active”. The result for `CSCC(O)c1cc2cc(C#N)c(C(F)(F)F)cc2[nH]1` (racemic) [Compound 408] reads “inactive”; that for `COCn1c(C(C)(O)C(F)(F)F)cc2cc(C#N)c(C(F)(F)F)cc21` (racemic) [Compound 332], “active”; that for `CC(C)(O)c1cc2cc(Cl)c(C(F)(F)F)cc2[nH]1` [Compound 285], “inactive”. The result for `CCSCC(C)(O)c1cc2cc(N)c(C(F)(F)F)cc2[nH]1` (stereo not shown) [Compound 166] reads “inactive”; that for `CCSCC(O)(CSCC)c1cc2cc([N+](=O)[O-])c(C(F)(F)F)cc2[nH]1` [Compound 13], “inactive”; that for `CC(O)(COc1ccc(C#N)c(C(F)(F)F)c1)c1cc2cc(C#N)c(C(F)(F)F)cc2[nH]1` (stereo not shown) [Compound 429, 2-[2-(4-Cyano-3-trifluoromethyl-phenoxy)-1-hydroxy-1-methyl-ethyl]-6-trifluoromethyl-1H-indole-5-carbonitrile], “inactive”. Turning to `CCSCC(C)(O)c1[nH]c2cc(C(F)(F)F)c(C#N)cc2c1I` (single isomer, unassigned) [Compound 349], the “active / inactive: inhibition” value is listed as “active”. The result for `CC(O)(c1cc2cc(C#N)c(C(F)(F)F)cc2n1CC#N)C(F)(F)F` (racemic) [Compound 331] reads “active”; that for `CC(O)(C[S+]([O-])CC(F)(F)F)c1cc2cc([N+](=O)[O-])c(C(F)(F)F)cc2[nH]1` (mixture of isomers) [Compound 205], “active”. The result for `CCSCC(O)c1[nH]c2cc(C(F)(F)F)c(C#N)cc2c1Br` (racemic) [Compound 413] reads “inactive”; that for `CCSCC(C)(O)c1cc2cc(C#N)c(OC)cc2[nH]1` (racemic) [Compound 445], “inactive”. The result for `CC(C)(O)c1[nH]c2cc(C(F)(F)F)c(C#N)cc2c1I` [Compound 278] reads “active”; that for `CCc1c(C(C)(O)CS(=O)(=O)CC)[nH]c2cc(C(F)(F)F)c(C#N)cc12` (single isomer, unassigned) [Compound 354], “active”; that for `N#Cc1cc2cc(C(O)(C(F)(F)F)C(F)(F)F)[nH]c2cc1C(F)(F)F` [Compound 357], “active”. `CC(C)(O)c1cc2cc([N+](=O)[O-])c(C(F)(F)F)cc2[nH]1` [Compound 274]: the “active / inactive: inhibition” value is “inactive”. The result for `CC(C)(O)c1[nH]c2cc(C(F)(F)F)c([N+](=O)[O-])cc2c1I` [Compound 276] reads “active”.

The values are drawn from patent US7282507B2, “Indole derivatives as selective androgen receptor modulators (SARMS)” (Janssen Pharmaceutica N.V., priority 2004, dated 2007).
